The target of assay [1] is T1, LXRβ (Homo sapiens, UniProt P55055).
T1 sequence (P55055 1-460): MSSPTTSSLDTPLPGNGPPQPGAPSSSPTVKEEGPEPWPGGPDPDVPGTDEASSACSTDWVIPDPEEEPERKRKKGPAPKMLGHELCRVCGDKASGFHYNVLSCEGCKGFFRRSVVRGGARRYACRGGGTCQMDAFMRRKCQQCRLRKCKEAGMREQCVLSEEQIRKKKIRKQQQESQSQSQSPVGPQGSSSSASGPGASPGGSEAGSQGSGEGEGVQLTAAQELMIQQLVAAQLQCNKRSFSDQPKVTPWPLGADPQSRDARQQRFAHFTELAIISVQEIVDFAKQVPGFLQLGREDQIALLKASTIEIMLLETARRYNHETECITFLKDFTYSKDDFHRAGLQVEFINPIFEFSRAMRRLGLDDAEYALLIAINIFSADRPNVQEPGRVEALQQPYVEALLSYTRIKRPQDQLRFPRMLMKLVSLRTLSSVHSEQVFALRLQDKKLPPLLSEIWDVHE
T1 sequence (P19793 1-462 partner): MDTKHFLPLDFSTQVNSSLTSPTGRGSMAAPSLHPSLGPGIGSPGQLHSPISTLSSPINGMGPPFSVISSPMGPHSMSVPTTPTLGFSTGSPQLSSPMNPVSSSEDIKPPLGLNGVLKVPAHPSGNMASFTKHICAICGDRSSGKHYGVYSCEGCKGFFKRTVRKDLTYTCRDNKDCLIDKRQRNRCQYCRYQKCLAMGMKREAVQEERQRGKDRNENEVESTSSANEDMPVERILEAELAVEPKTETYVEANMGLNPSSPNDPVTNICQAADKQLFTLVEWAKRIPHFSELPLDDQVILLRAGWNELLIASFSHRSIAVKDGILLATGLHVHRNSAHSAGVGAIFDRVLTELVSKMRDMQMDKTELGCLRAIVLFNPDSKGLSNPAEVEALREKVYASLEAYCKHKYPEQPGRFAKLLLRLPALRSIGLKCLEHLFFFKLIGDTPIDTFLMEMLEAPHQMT
In words: LXR/LXRE co-transfection assay (luciferase reporter, CV-1 cells). The class given is cell-based. Set-up: expressed in transfected cells; host or cells: CV-1 African Green Monkey Kidney Cells. As to conditions: for EC50: CV-1 cells, agonism; for LXRβ/LXRE Eff: efficacy relative to control N-(3-((4-fluorophenyl)-(naphthalene-2-sulfonyl)-amino)propyl)-2,2-dimethylpropionamide. The source says:
(§1) To measure the ability of compounds to activate or inhibit the transcriptional activity of LXR, in a cell based assay, the cotransfection assay may be used. It has been shown that LXR functions as a heterodimer with RXR. For the co-transfection assay, expression plasmids for LXR and RXR are introduced via transient transfection into mammalian cells along with a luciferase reporter plasmid that contains one copy of a DNA sequence that is bound by LXR-RXR heterodimers (LXRE; Willy, P. et al. 1995). Treatment of transfected cells with an LXR agonist increases the transcriptional activity of LXR, which is measured by an increase in luciferase activity.
(§2) A. Required Materials • 1. CV-1 African Green Monkey Kidney Cells • 2. Co-transfection Expression plasmids, CMX-hLXR, or CMX-hLXR, CMX-RXR, reporter (LXREx1-Tk-Luciferase), and control (CMX-Galactosidase expression vector). • 3. Transfection reagent such as FuGENE6 (Roche). • 4. 1× Cell lysis buffer (1% Triton X 100 (JT Baker X200-07), 10% Glycerol (JT Baker M778-07), 5 mM Ditriotreitol (Quantum Bioprobe DTT03; add fresh before lysing), 1 mM EGTA (Ethylene Glycol-bis (B-Amino ethyl ether)-N,N,N′,N′-Tetracetic Acid) (Sigma E-4378), 25 mM Tricine (ICN 807420) pH 7.8 • 5. 1× Luciferase assay buffer (pH at 7.8) (0.73 mM ATP, 22.3 mM Tricine, 0.11 mM EDTA 33.3 mM DTT) • 6. 1× Luciferrin/CoA (11 mM Luciferin, 3.05 mM Coenzyme A, 10 mM HEPES
(§3) B. Preparation of Screening Reagents • 1. CV-1 cells are prepared 24 hours prior to the experiment by plating them into T-175 flasks or 500 cm^2 dishes in order to achieve 70-80% confluency on the day of the transfection. The number of cells to be transfected is determined by the number of plates to be screened. Each 384 well plate requires 1.92×10^6 cells or 5000 cells per well. • 2. DNA Transfection Reagent is prepared by mixing the required plasmid DNAs with a cationic lipid transfection reagent such as DOTAP or FuGENE6 by following the instructions provided with the reagents. Optimal DNA amounts need to be determined empirically per cell line and size of vessel to be transfected. • 3. Add 10-12 mls media to the DNA Transfection Reagent and add this mixture to the cells after aspirating media from a T175 cm^2 flask. • 4. Incubate at least 5 hours at 37 degrees to prepare screening cells. • 5. Luciferase assay reagent is prepared by combining before use (per • 10 ml): • 10 ml 1× Luciferase assay buffer • 0.54 mls of 1× Luciferrin/CoA • 0.54 mls of 0.2 M Magnesium sulfate
(§4) 1. C. Procedure • 1. Prepare assay plates by dispensing 0.5 ul of 1 mM compound per well of a 384 well plate to achieve final compound concentration of 10 uM and 1% DMSO. • 2. Remove media from the screening cells, trypsinize, harvest cells by centrifugation, count the cells, and plate at 5000 cells per well in the 384 well assay plate prepared above in a volume of about 45 ul. • 3. Incubate assay plates containing both compounds and screening cells for 20 hours at 37 C. degrees. • 4. Carefully aspirate media from cells and ensure that cells are not lifted off. • 5. Add lysis buffer (30 ul/well) and incubate at least 30 minutes room temp. • 6. Add luciferase assay buffer (30 ul/well) and read assay plates on luminometer (PE Biosystems Northstar reader with on-board injectors, or equivalent). • 7. Read plates immediately after addition of luciferase assay reagent.
(§5) The LXR/LXRE co-transfection assay can be used to establish the EC50/IC50 values for potency and percent activity or inhibition for efficacy. Efficacy defines the activity of a compound relative to a high control ((N-(3-((4-fluorophenyl)-(naphthalene-2-sulfonyl)-amino)propyl)-2,2-dimethylpropionamide)) or a low control (DMSO/vehicle). The dose response curves are generated from an 8 point curve with concentrations differing by ½ LOG units. Each point represents the average of 4 wells of data from a 384 well plate. The curve for the data is generated by using the equation: Y=Bottom+(Top-Bottom)/(1+10^((LogEC50-X)*HillSlope)) […]
A general note: Reporter assays use an easily measured gene product as a stand-in for the process of interest.

Assay [2] has as its target T2, LXRα (Homo sapiens, UniProt Q13133).
T2 sequence (Q13133 1-447): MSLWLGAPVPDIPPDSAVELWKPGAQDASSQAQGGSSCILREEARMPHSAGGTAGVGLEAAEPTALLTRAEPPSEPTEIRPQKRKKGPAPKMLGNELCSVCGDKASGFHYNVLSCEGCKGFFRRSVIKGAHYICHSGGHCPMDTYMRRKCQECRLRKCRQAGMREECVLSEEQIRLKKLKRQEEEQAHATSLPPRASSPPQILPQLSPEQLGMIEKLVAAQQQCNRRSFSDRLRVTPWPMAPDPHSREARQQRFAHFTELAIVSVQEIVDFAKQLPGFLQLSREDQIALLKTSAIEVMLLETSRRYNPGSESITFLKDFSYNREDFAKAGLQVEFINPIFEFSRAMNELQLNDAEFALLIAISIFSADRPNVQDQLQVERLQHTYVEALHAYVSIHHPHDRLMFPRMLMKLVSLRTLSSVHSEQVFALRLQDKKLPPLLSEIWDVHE
T2 sequence (P19793 1-462 partner): T1 sequence (P19793 1-462 partner)
The assay is described as above. It is filed as cell-based. Set-up: expressed in transfected cells; host or cells: CV-1 African Green Monkey Kidney Cells. The conditions noted are these: for EC50: CV-1 cells, agonism; for LXRα/LXRE Eff: efficacy relative to control N-(3-((4-fluorophenyl)-(naphthalene-2-sulfonyl)-amino)propyl)-2,2-dimethylpropionamide.
Description: as §1, §2, §3, §4, §5

The target of assay [3] is T1, LXRβ. Kind of assay: Scintillation proximity assay (SPA), displacement of 3H-24,25-epoxycholesterol. Details: made in house. As to conditions: scintillation proximity binding assay; average of at least two dose response experiments; read-out: Ki(β). The protocol: (§6) The SPA assay measures the radioactive signal generated by the binding of ^3H-24, 25-epoxycholesterol to LXRα or LXRβ. The basis of the assay is the use of SPA beads containing a scintillant, such that when binding to the receptor brings the labeled ligand into proximity with the bead, the energy from the label stimulates the scintillant to emit light. The light is measured using a standard microplate scintillation reader. The ability of a ligand to bind to a receptor can be measured by assessing the degree to which the compound can compete off a radiolabelled ligand with known affinity for the receptor.
(§7) A. Required Materials • 1. Label: ^3H-24, 25-epoxy-cholesterol (Amersham) • 2. LXRα lysate: Baculovirus expressed LXRα/RXR heterodimer with RXR having a 6-HIS tag produced as a crude lysate • 3. LXRβ lysate: Baculovirus expressed LXRβ/RXR heterodimer with RXR having a 6-HIS tag produced as a crude lysate • 4. SPA beads: Ysi copper His-tag SPA beads (Amersham) • 5. Plates: Non-binding surface 96-well plate (Corning) • 6. Protein lysate dilution buffer: (20 mM Tris-HCl pH 7.9, 500 mM NaCl, 5 mM Imidazole). • 7. 2×SPA Buffer: (40 mM K2HPO4/KH2PO4 pH7.3, 100 mM NaCl, 0.05% Tween 20, 20% Glycerol, 4mM EDTA) • 8. 2×SPA Buffer w/o EDTA: (40 mM K2HPO4/KH2PO4 pH7.3, 100 mM NaCl, 0.05% Tween 20, 20% Glycerol)
(§8) B. Preparation of Screening Reagents • 1. [^3H]24,25 Epoxycholesterol (EC) solution. For a single 384-well plate (or 400 wells), add 21 μl [^3H] EC (specific activity 76.5Ci/mmol, concentration 3.2mCi/ml) in 4.4 ml of 2×SPA buffer to a final concentration of 200nM. For each additional 384-well plate, add 19.1 μl additional [^3H] EC and 4.0 ml additional 2×SPA buffer. The final concentration of [^3H] EC in the well will be 50 nM. • 2. Dilute LXRα lysate with protein lysate dilution buffer. Make 1400 μl of diluted LXRα lysate for a 384-well plate, (or 200 wells) and 1120 μl of diluted LXRα lysate for each additional 384-well plate. • 3. Diluted LXRβ lysate with protein lysate dilution buffer. Make 1400 μl of diluted LXRβ lysate for 1 a 384-well plate, (or 200 wells) and 1120 μl of diluted LXRβ lysate for each additional 384-well plate. • 4. SPA bead solution. For 1 a 384-well plate (or 400 wells), mix 3.75 ml of 2× SPA buffer w/o EDTA, 2.25 ml of H2O, and 1.5 ml of Ysi His-tag SPA beads (Vortex well before taking). For each addition 384-well plate, mix additional 3.5 ml of 2×SPA buffer w/o EDTA, 2.1 ml of H2O, and 1.4 ml of Ysi His-tag SPA beads to the SPA bead solution.
(§9) C. Procedure: • 1. Prepare appropriate dilutions of each compound and pipette into the appropriate wells of a multiwell plate. • 2. Add 9.1 μl of [^3H] EC to each well of column 2-23 of the multiwell plate. • 3. Add 5 μl of diluted LXRα lysate to each well of column 2-23 on odd rows of the multiwell plate. • Add 5 μl of diluted LXRβ lysate to each well of column 2-23 on even rows of the multiwell plate. • 4. Add 17.5 μl of SPA bead solution to each well of column 2-23 of the multiwell plate. • 5. Cover the plates with clear sealer. Place the plates in the MicroBeta. Incubate at room temperature for 1 hr. • 6. Count using program n ABASE 3H—384DPM. The setting for n ABASE 3H—384DPM is:
(§10) Assays for LXRα and LXRβ were performed in the identical manner. The determined Ki represents the average of at least two independent dose response experiments. The binding affinity for each compound may be determined by non-linear regression analysis using the one site competition formula to determine the IC50 where:
(§11) [formula] The Ki is than calculated using the Cheng and Prusoff equation where:
(§12) [formula] Ligand=50 nM EC and Kd=200 nM as determined by saturation binding
In general terms: Scintillation proximity formats need no separation of bound from free tracer.

The target of assay [4] is T2, LXRα. The description is as above. As to conditions: scintillation proximity binding assay; average of at least two dose response experiments; read-out: Ki(α). Set-up: made in house. The protocol:
as §6, §7, §8, §9, §10, §11, §12

The source of these data is US7998986B2, “Modulators of LXR” (Exelixis Patent Company LLC, priority 2001, dated 2011).

The EC50 is the midpoint of the concentration-response curve. The Ki is a measure of affinity in units of concentration, obtained from inhibition or displacement.

In the case of `N#Cc1c(C(F)(F)F)cc(-c2cccs2)n(Cc2ccccc2)c1=O` [1-Benzyl-2-oxo-6-thiophen-2-yl-4-trifluoromethyl-1,2-dihydro-pyridine-3-carbonitrile], in assay [1], the EC50 came to 1800 nM and the “LXRβ/LXRE Eff” value is 82%. Further, in assay [2], a half-maximal response (EC50) required 1600 nM and the “LXRα/LXRE Eff” value is listed as 56%. Also, the Ki in assay [3] was found to be 580 nM. The inhibition constant (Ki) in assay [4] came to 1400 nM.
For the compound `N#Cc1c(C(F)(F)F)cc(-c2ccccc2)n(N=C2CCCCC2)c1=O` [1-Cyclohexylideneamino-2-oxo-6-phenyl-4-trifluoromethyl-1,2-dihydropyridine-3-carbonitrile], the values for the EC50 in assay [1] and in assay [2] were 4300 nM and 3400 nM, respectively. Also, the “LXRβ/LXRE Eff” value in assay [1] amounted to 72%. In assay [2], the “LXRα/LXRE Eff” value amounted to 90%. Moreover, the inhibition constant Ki in assay [3] is 450 nM; in assay [4], 690 nM.
Take `Cc1ccc(Cn2c(-c3ccccc3)cc(C(F)(F)F)c(C#N)c2=O)o1` [1-(5-Methyl-furan-2-ylmethyl)-2-oxo-6-phenyl-4-trifluoromethyl-1,2-dihydro-pyridine-3-carbonitrile]: in assay [1], the EC50 amounted to 810 nM and the “LXRβ/LXRE Eff” value amounted to 93%. In addition, in assay [2], the midpoint of the response, the EC50, lay at 580 nM and the “LXRα/LXRE Eff” value is listed as 91%. The Ki in assay [3] amounted to 230 nM. For the same compound, the inhibitory constant (Ki) in assay [4] is 360 nM.
In the case of `COc1cccc(-c2cc(C(F)(F)F)c(C#N)c(=O)n2Cc2ccccc2)c1` [1-Benzyl-6-(3-methoxy-phenyl)-2-oxo-4-trifluoromethyl-1,2-dihydro-pyridine-3-carbonitrile], in assay [1], a half-maximal effect (EC50) was put at 840 nM and the “LXRβ/LXRE Eff” value was 79%. In assay [2], the 50% effective concentration (EC50) amounted to 1200 nM and the “LXRα/LXRE Eff” value came out at 78%. Further, in assay [3], the inhibitory constant (Ki) came out at 120 nM. The Ki in assay [4] came to 510 nM.
